Drawing on patent publication US20150080337A1, “N-CYCLOALKYL-N-[(TRISUBSTITUTEDSILYLPHENYL)METHYLENE]-(THIO)CARBOXAMIDE DERIVATIVES” (BAYER CROPSCIENCE, priority 2012, published 2015), this text covers chromatographic logP, Efficacy and logP for nine compounds.

Data set [1] in a line: log P by HPLC on reversed-phase column (C 18), EEC Directive 79/831 Annex V.A8. The format is physicochemical. Conditions: Table 1, compounds of formula (I); HPLC C 18, 40° C., 0.1% aqueous formic acid and acetonitrile, gradient 10% to 90% acetonitrile. The procedure: In table 1, the log P values were determined in accordance with EEC Directive 79/831 Annex V.A8 by HPLC (High Performance Liquid Chromatography) on a reversed-phase column (C 18), using the method described below:
Temperature: 40° C.; Mobile phases: 0.1% aqueous formic acid and acetonitrile; linear gradient from 10% acetonitrile to 90% acetonitrile.
Calibration was carried out using unbranched alkan-2-ones (comprising 3 to 16 carbon atoms) with known log P values (determination of the log P values by the retention times using linear interpolation between two successive alkanones). lambda-max-values were determined using UV-spectra from 200 nm to 400 nm and the peak values of the chromatographic signals.
In table 2, M+H (Apcl+) and log P are defined as for table 1.

Data set [2] has as its system Septoria tritici. Description: In vivo preventive test on Septoria tritici (wheat). Conditions: 500 ppm of active ingredient; wheat plants sprayed 24 hours before contamination; grading 24 days after contamination vs control plants. The protocol:
(§1) The active ingredients tested are prepared by homogenization in a mixture of acetone/tween/DMSO, and then diluted with water to obtain the desired active material concentration.
(§2) Wheat plants (“Scipion” variety), sown in starter cups on a 50/50 peat soil pozzolana substrate and grown at 22° C., are treated at the 1 leaf stage (10 cm height) by spraying with the active ingredient prepared as described above. Plants, used as controls, are treated with the mixture of acetone/tween/DMSO/water not containing the active material.
After 24 hours, the plants are contaminated by spraying the leaves with an aqueous suspension of cryopreserved Septoria tritici spores (500 000 spores per mL). The contaminated wheat plants are incubated for 72 hours at 18° C. and at 100% relative humidity, and then for 21 days at 90% relative humidity.
Grading (% of efficacy) is carried out 24 days after the contamination, in comparison with the control plants.
Under these conditions, good (at least 70%) to total protection is observed at a dose of 500 ppm of active ingredient with the following compounds from table F: […]

In data set [3] the test system is Sphaerotheca fuliginea. Description: In vivo test on Sphaerotheca fuliginea (cucurbits powdery mildew). Conditions: 500 ppm of active ingredient; gherkin plants sprayed 24 hours before contamination; grading 12 days after contamination vs control plants. The protocol: (§3) The active ingredients tested are prepared by homogenization in a mixture of acetone/tween/DMSO and then diluted with water to obtain the desired active material concentration.
Gherkin plants (“Vert petit de Paris” variety), sown in starter cups on a 50/50 peat soil-pozzolana substrate and grown at 24° C., are treated at the Z11 cotyledon stage by spraying with the active ingredient prepared as described above. Plants, used as controls, are treated with the mixture of acetone/tween/DMSO/water not containing the active material.
After 24 hours, the plants are contaminated by spraying the cotyledons with an aqueous suspension of Sphaerotheca fuliginea spores (100 000 spores per mL). The spores are collected from infected plants. The contaminated gherkin plants are incubated at about 20° C. and at 70-80% relative humidity.
(§4) Grading (% of efficacy) is carried out 12 days after the contamination, in comparison with the control plants.
Under these conditions, good (at least 70%) to total protection is observed at a dose of 500 ppm of active ingredient with the following compounds from table A: […]

The subject of data set [4] is Uromyces appendiculatus. Description: In vivo preventive test on Uromyces appendiculatus (bean rust). To be noted: 500 ppm of active ingredient; bean plants sprayed 24 hours before contamination; grading 11 days after contamination vs control plants. The procedure: as §1
Bean plants (“Saxa” variety), sown in starter cups on a 50/50 peat soil pozzolana substrate and grown at 24° C., are treated at the 2 leaf stage (9 cm height) by spraying with the active ingredient prepared as described above. Plants, used as controls, are treated with the mixture of acetone/tween/DMSO/water not containing the active material.
After 24 hours, the plants are contaminated by spraying the leaves with an aqueous suspension of Uromyces appendiculatus spores (150 000 spores per mL). The spores are collected from infected plants and are suspended in water containing 2.5 mL/L of Tween 80 at 10%. The contaminated bean plants are incubated for 24 hours at 20° C. and at 100% relative humidity, and then for 10 days at 20° C. and at 70-80% relative humidity.
Grading (% of efficacy) is carried out 11 days after the contamination, in comparison with the control plants.
Under these conditions, good (at least 70%) to total protection is observed at a dose of 500 ppm of active ingredient with the following compounds from table G: […]

The subject of data set [5] is Puccinia recondita. As to the kind of experiment: In vivo test on Puccinia recondita (brown rust). To be noted: 500 ppm of active ingredient; wheat plants sprayed 24 hours before contamination; grading 12 days after contamination vs control plants. The protocol:
as §1, §2
After 24 hours, the plants are contaminated by spraying the leaves with an aqueous suspension of Puccinia recondita spores (100 000 spores per mL). The spores are collected from an infected plant and are suspended in water containing 2.5 mL/L of Tween 80 at 10%. The contaminated wheat plants are incubated for 24 hours at 20° C. and at 100% relative humidity, and then for 10 days at 20° C. and at 70-80% relative humidity.
as §4
Under these conditions, good (at least 70%) to excellent (at least 90%) protection is observed at a dose of 500 ppm of active ingredient with the following compounds from table C: […]

The subject of data set [6] is Alternaria brassicae. As to the kind of experiment: In vivo preventive test on Alternaria brassicae (leaf spot on radish). Conditions: 500 ppm of active ingredient; radish plants sprayed 24 hours before contamination; grading 6 days after contamination vs control plants. The protocol: as §1
Radish plants (“Pernod Clair” variety), sown in starter cups on a 50/50 peat soil pozzolana substrate and grown at 17° C., are treated at the cotyledon stage by spraying with the active ingredient prepared as described above. Plants, used as controls, are treated with the mixture of acetone/tween/DMSO/water not containing the active material.
After 24 hours, the plants are contaminated by spraying the cotyledons with an aqueous suspension of Alternaria brassicae spores (50 000 spores per mL). The spores are collected from a 15-day-old culture. The contaminated radish plants are incubated at 20° C. and at 100% relative humidity.
Grading (% of efficacy) is carried out 6 days after the contamination, in comparison with the control plants.
Under these conditions, good (at least 70%) to total protection is observed at a dose of 500 ppm of active ingredient with the following compounds from table D: […]

Data set [7] has as its system Pyrenophora teres. Description: In vivo test on Pyrenophora teres (barley net blotch). To be noted: 500 ppm of active ingredient; barley plants sprayed 24 hours before contamination; grading 14 days after contamination vs control plants. The protocol:
as §1
Barley plants (“Plaisant” variety), sown in starter cups on a 50/50 peat soil pozzolana substrate and grown at 22° C., are treated at the 1 leaf stage (10 cm height) by spraying with the active ingredient prepared as described above. Plants, used as controls, are treated with the mixture of acetone/tween/DMSO/water not containing the active material.
After 24 hours, the plants are contaminated by spraying the leaves with an aqueous suspension of Pyrenophora teres spores (12 000 spores per mL). The spores are collected from a 12-day-old culture. The contaminated barley plants are incubated for 48 hours at 20° C. and at 100% relative humidity, and then for 12 days at 20° C. at 70-80% relative humidity.
Grading (% of efficacy) is carried out 14 days after the contamination, in comparison with the control plants.
Under these conditions, good (at least 70%) to excellent (at least 90%) protection is observed at a dose of 500 ppm of active ingredient with the following compounds from table B: […]

Data set [8] relates to Botrytis cinerea. Description: In vivo preventive test on Botrytis cinerea (grey mould). To be noted: 500 ppm of active ingredient; gherkin plants sprayed 24 hours before contamination; grading 4 to 5 days after contamination vs control plants. The procedure:
as §3
Gherkin plants (“Vert petit de Paris” variety), sown in starter cups on a 50/50 peat soil pozzolana substrate and grown at 24° C., are treated at the Z11 cotyledon stage by spraying with the active ingredient prepared as described above. Plants, used as controls, are treated with the mixture of acetone/tween/DMSO/water not containing the active material.
After 24 hours, the plants are contaminated by spraying the cotyledons with an aqueous suspension of cryopreserved Botrytis cinerea spores (50 000 spores per mL). The spores are suspended in a nutrient solution composed of 10 g/L of PDB, 50 g/L of D-Fructose, 2 g/L of NH4NO3 and 1 g/L of KH2PO4. The contaminated gherkin plants are incubated at 17° C. and at 90% relative humidity.
Grading (% of efficacy) is carried out 4 to 5 days after the contamination, in comparison with the control plants.
Under these conditions, good (at least 70%) is observed at a dose of 500 ppm of active ingredient with the following compound from table E: […]

For `Cc1nn(C)c(F)c1C(=O)N(Cc1ccccc1[Si](C)(C)c1ccccc1)C1CC1` [I.1, N-cyclopropyl-N-{2-[dimethyl(phenyl)silyl]benzyl}-5-fluoro-1,3-dimethyl-1H-pyrazole-4-carboxamide], in data set [1], the chromatographic logP came out at 4.24. The Efficacy is reported as 96% in data set [2], 100% in data set [3], 93% in data set [4] and 92% in data set [5].

For `Cn1cc(C(=O)N(Cc2ccccc2[Si](C)(C)c2cccs2)C2CC2)c(C(F)F)n1` [I.31], the log partition coefficient (logP) in data set [1] stood at 4.24. Besides, the Efficacy in data set [2] was found to be 96%; in data set [3], 100%; in data set [4] it was 96%; in data set [5], 75%.

In turn, `Cn1cc(C(=O)N(Cc2ccccc2[Si](C)(C)c2ccccc2)C2CC2)c(C(F)F)n1` [I.3] came in with a logP in data set [1] of 4.41. Further, the Efficacy in data set [2] is on record as 80%; in data set [3] it was 93%; in data set [4], 93%; in data set [5], 83%.

Compound `Cn1nc(C(F)F)c(C(=S)N(Cc2ccccc2[Si](C)(C)c2ccc(Cl)cc2)C2CC2)c1F` [I.8] gave a logP in data set [1] of 3.09. The Efficacy in data set [2] came out at 97%; in data set [3] it was 100%; in data set [6] it was 88%; in data set [4] it was 97%; in data set [5], 88%.

In data set [1], `Cn1nc(C(F)F)c(C(=O)N(Cc2ccccc2[Si](C)(C)c2cccc3ccccc23)C2CC2)c1F` [I.25] registered a logP of 5.19. Also, the Efficacy is given as 100% in data set [2], 100% in data set [3], 80% in data set [6] and 86% in data set [4].

In the case of `Cn1cc(C(=O)N(Cc2ccccc2[Si](C)(C)c2ccc(Oc3ccccc3)cc2)C2CC2)c(C(F)F)n1` [I.20], the log partition coefficient (logP) in data set [1] amounted to 5.31. Besides, the Efficacy in data set [2] was determined as 75%; in data set [3], 83%; in data set [4], 89%; in data set [7], 79%.

In turn, `Cn1nc(C(F)F)c(C(=O)N(Cc2ccccc2[Si](C)(C)c2ccc(Oc3ccccc3)cc2)C2CC2)c1F` [I.19] yielded a log partition coefficient (logP) in data set [1] of 5.68. Also, the Efficacy came out at 100% in data set [2]; 100% in data set [3]; 96% in data set [4]; 97% in data set [7]; 93% in data set [5].

In turn, `Cn1nc(C(F)F)c(C(=O)N(Cc2ccccc2[Si](C)(C)c2ccccc2)C2CC2)c1F` [I.4] had a logP in data set [1] of 4.78. Further, the Efficacy is listed as 100% in data set [2], 100% in data set [3], 100% in data set [4] and 92% in data set [5].

In data set [1], `C[Si](C)(c1ccccc1CN(C(=O)c1ccsc1I)C1CC1)c1cccc2ccccc12` [I.29] returned a log partition coefficient (logP) of 5.84. Further, the Efficacy in data set [8] was 75%.

A word on the chromatographic logP: it is lipophilicity estimated from chromatographic retention. What is called logP is a log measure of how a compound divides between an organic and an aqueous phase. A higher logP goes with a more lipophilic compound.
